Measurements as given in patent US20100286035A1, “NEUROMEDIN U DERIVATIVE” (Takeda Pharmaceutical Company Limited, priority 2007, published 2010).

Legend:
Human FM3 = biological target: T1, Human FM3 (Homo sapiens, UniProt Q9HB89); assay: Receptor binding study: 125I-NMU 8 labeled ligand binding inhibition to the FM3 membrane fraction; settings: FM3/CHO membrane fraction, 25° C. for 60 min, read-out: FM3 RBA IC50
T1 construct: expressed in transfected cells; host or cells: CHO (dhfr-) cells; membrane fraction
T1 sequence (Q9HB89 1-426 R203Q): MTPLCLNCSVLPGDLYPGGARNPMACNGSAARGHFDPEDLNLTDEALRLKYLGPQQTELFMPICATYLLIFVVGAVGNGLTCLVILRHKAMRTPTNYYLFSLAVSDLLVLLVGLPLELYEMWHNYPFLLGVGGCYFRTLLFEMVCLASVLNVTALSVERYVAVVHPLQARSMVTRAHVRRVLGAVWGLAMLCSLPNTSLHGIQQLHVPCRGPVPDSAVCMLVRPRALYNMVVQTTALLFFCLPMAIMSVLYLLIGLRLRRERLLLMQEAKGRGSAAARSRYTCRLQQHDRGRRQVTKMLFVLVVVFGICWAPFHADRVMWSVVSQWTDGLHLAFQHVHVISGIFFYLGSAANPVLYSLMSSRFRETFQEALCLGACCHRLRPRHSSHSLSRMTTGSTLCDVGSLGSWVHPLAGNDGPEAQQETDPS
Description: Human FM3 represented CHO cells (dhfr-) and human TRI represented CHO cells (dhfr-) were cultured under 5% carbon dioxide conditions at 37° C. using a 10% dialyzed FBS-containing MEMα (Invitrogen) culture. The adhered cells were peeled with 10 ml of 0.1 mM EDTA containing DPB-S (Invitrogen) and cells were recovered by centrifugal separation at 4° C. at 1000 rpm for 10 min. 15 ml of homogenizer buffer (10 mM NaHCO3 (pH 7.4), 5 mM EDTA, Protein Inhibitors=0.5 mM PMSF, 10 μg/ml Pepstatin A, 20 μg/ml Leupeptin, 4 μg/ml E-64) were added to the cell pellets obtained. […]
Next, the reactivity between the radiation labeled ligand ^125I-NMU 8 and each receptor represented cell membrane fraction was analyzed by scatchard analysis using a reactive buffer (50 mM HEPES (pH 6.8), 1 mM EDTA, 0.1% BSA, Protein Inhibitors). […]
Namely, dilution strings of NMU derivatives and PEG conjugates were provided and diluted membrane fraction solutions (200 μl) were added. […] According to the aforementioned operations, the amount of binding of the labeled ligand remaining in the filter was measured and the IC50 values were calculated using graph pad PRISM (FIG. 4A (FM3 receptor binding), FIG. 4B (TGR1 receptor binding), FIG. 4C (FM3 receptor binding), FIG. 4D (TGR1 receptor binding) Table 9).

male C57BL/6J mice = assay: Test Example 2: antifeedant activity of NMU-23 and NMU-8 in mice; type: in vivo; settings: peripheral administration
Description: 7 weeks old male C57BL/6J mice (mean bodyweight: 25 g) delivered from the Japan Charles River Company were raised for 5 to 10 days after delivery under a feeding environment regulated for temperature and humidity with lighting time (25° C., 12 hours of lighted period and 12 hours of dark period, light was lit at 8:00). Four animals were placed in one cage. After handling the mice for 5 to 8 days, the animals were housed singly in each cage where a floor mesh was spread and acclimated by intraperitoneal injection for 3 days prior to the administration of a peptide. The animals acclimated were fasted for 16 hours from 18:00 prior to the administration of the peptide. However, the animals had free access to drinking water. […] After the injection of the peptide solution, MF feed which had been weighed (Oriental Yeast Industry) was given freely to the mice. Further, the residual amount of the feed was measured after 3, 6 and 24 hours. The food intakes at 3, 6 and 24 hours were calculated by subtracting the residual amount of the feed after 3, 6 and 24 hours from the amount of the feed that was originally given.
[In FIG. 2, * and ** tested by T-tests indicated to be lower at the levels of significance of 0.05 and 0.01 (P<0.05 and P<0.01]

IC50 (Human FM3): 0.19 nM
Structure (SMILES): CC(C)C[C@H](NC(=O)[C@H](Cc1ccccc1)NC(=O)[C@@H](N)Cc1ccc(O)cc1)C(=O)N[C@@H](Cc1ccccc1)C(=O)N[C@@H](CCCNC(=N)N)C(=O)N1CCC[C@H]1C(=O)N[C@@H](CCCNC(=N)N)C(=O)N[C@@H](CC(N)=O)C(N)=O [NMU-8, Try-Phe-Leu-Phe-Arg-Pro-Arg-Asn-NH2]
antifeedant activity via peripheral administration (male C57BL/6J mice): did not express an antifeedant activity
